Measured values: PMC8954214, “Preparation, Identification, Molecular Docking Study and Protective Function on HUVECs of Novel ACE Inhibitory Peptides from Protein Hydrolysate of Skipjack Tuna Muscle” (Marine Drugs, 2022)

Key:
[1] = tested on: HUVECs; assay: NO production in HUVECs; assay type: cell-based, human; conditions: 24 h
[2] = tested on: HUVECs; assay: HUVEC viability, MTT assay; assay type: cell-based, human; conditions: 24 h, 100–400 μM
Experimental: After thawing, HUVECs were maintained in cultured flasks and cultured to confluence in DMEM containing 1% Penicillin-Streptomycin liquid, supplemented with 10% FBS. HUVECs received the culturing process at 37°C in a humidified 5% CO2 atmosphere.
The cell viability of TMAP1 and TMAP2 on HUVECs were assessed using the MTT assay on manufacturer’s instructions. In brief, cells were incubated in 96-well plates at density of 0.8 × 10^4 cells per well with 180 μL completed DMEM. Following a confluency of 50–60% in the 96-well plates, the cells were treated with 20 μL peptides under designed concentrations (100, 200, and 400 μM) and further cultured for 24 h at 37 °C. Subsequently, the cells were added to 20 μL MTT solution (5 mg/mL) and incubated for 4 h. Finally, DMSO was added into each well, and the absorbance (A) at 490 nm was determined. The cell viability was calculated as: Cell viability (%) = (Aexperiment group/Acontrol group) × 100(2)

[3] = tested on: HUVECs; assay: ET-1 secretion of HUVECs; assay type: cell-based, human; conditions: 24 h
From the text: Skipjack tuna (K. pelamis) muscle was provided by Ningbo Today Food Co., Ltd (China). Sephadex G-25 resins and NO assay kit (Nitrate reductase approach, A012-1) were purchased from Nanjing Jiancheng Bioengineering Institute (China). ET-1 ELISA Kit (HM10108) was purchased from Shanghai Qiaodu Biotechnology Co. Ltd. (China).Trypsase (≥20,000 U/g), pepsase (≥500,000 U/g), papain (≥400,000 U/g), ACE (A6778) and N-[3-(2-Furyl) acryloyl]-Phe-Gly-Gly (FAPGG, F713) were purchased from Sigma-Aldrich (Shanghai) Trading Co., Ltd. (China). […] ACEi Peptides of (TMAP1-TMAP6) with purity higher than 98% were synthesized in Shanghai Apeptide Co. Ltd. (China).
The NO and ET-1 contents of HUVECs were determined after a 24 h treatment of ACEi peptides. […] NO and ET-1 production in treated cells were measured by employing human NO and ET-1 assay kit as manufactures’ protocol, separately.

[4] = tested on: systolic blood pressure; conditions: single blood pressure test; cited from earlier work
From the text: (§1) Among these peptides, ACEi peptides represent a promising alternative to synthetic drugs to control hypertension. For instance, canary seed peptides (CSP) have great potential as anti-hypertensive and anti-obesity agents due to their inhibition activity on ACE and pancreatic lipase, and their non-competitive inhibitory activity was due to their destabilization of the transition state and Zn(II) coordination in ACE [13]. Noncompetitive ...

[5] = tested on: HUVECs; conditions: cited from earlier work
From the text: Among these peptides, ACEi peptides represent a promising alternative to synthetic drugs to control hypertension. For instance, canary seed peptides (CSP) have great potential as anti-hypertensive and anti-obesity agents due to their inhibition activity on ACE and pancreatic lipase, and their non-competitive inhibitory activity was due to their destabilization of the transition state and Zn(II) coordination in ACE [13]. Noncompetitive ... || NO can antagonize the vascular tone function of angiotensin II by down-regulating the synthesis of ang II type 1 receptor and ACE, which is further involved in regulating the peripheral and central function of the cardiovascular system and exerts vasoprotective effects. […] Therefore, the deficiency of NO will increase the risks of cardiovascular in pathologic situations, and improving endothelial NO production represents reasonable therapeutic strateg ...

[6] = tested on: ET-1; conditions: cited from earlier work; for ET-1 generation: from R. philippinarum
From the text: as §1, with “... || ET-1 is a known vasoconstriction factor similar to Ang II and is capable of inducing endothelial dysfunction related to atherosclerosis and hypertension.” for “...”

[7] = molecular target: T1, ACE (Oryctolagus cuniculus, UniProt P12822); conditions: from Ruditapes philippinarum; cited from earlier work
T1 construct: purchased Sigma-Aldrich (Shanghai) Trading Co., Ltd. A6778
T1 sequence (P12822 34-1310): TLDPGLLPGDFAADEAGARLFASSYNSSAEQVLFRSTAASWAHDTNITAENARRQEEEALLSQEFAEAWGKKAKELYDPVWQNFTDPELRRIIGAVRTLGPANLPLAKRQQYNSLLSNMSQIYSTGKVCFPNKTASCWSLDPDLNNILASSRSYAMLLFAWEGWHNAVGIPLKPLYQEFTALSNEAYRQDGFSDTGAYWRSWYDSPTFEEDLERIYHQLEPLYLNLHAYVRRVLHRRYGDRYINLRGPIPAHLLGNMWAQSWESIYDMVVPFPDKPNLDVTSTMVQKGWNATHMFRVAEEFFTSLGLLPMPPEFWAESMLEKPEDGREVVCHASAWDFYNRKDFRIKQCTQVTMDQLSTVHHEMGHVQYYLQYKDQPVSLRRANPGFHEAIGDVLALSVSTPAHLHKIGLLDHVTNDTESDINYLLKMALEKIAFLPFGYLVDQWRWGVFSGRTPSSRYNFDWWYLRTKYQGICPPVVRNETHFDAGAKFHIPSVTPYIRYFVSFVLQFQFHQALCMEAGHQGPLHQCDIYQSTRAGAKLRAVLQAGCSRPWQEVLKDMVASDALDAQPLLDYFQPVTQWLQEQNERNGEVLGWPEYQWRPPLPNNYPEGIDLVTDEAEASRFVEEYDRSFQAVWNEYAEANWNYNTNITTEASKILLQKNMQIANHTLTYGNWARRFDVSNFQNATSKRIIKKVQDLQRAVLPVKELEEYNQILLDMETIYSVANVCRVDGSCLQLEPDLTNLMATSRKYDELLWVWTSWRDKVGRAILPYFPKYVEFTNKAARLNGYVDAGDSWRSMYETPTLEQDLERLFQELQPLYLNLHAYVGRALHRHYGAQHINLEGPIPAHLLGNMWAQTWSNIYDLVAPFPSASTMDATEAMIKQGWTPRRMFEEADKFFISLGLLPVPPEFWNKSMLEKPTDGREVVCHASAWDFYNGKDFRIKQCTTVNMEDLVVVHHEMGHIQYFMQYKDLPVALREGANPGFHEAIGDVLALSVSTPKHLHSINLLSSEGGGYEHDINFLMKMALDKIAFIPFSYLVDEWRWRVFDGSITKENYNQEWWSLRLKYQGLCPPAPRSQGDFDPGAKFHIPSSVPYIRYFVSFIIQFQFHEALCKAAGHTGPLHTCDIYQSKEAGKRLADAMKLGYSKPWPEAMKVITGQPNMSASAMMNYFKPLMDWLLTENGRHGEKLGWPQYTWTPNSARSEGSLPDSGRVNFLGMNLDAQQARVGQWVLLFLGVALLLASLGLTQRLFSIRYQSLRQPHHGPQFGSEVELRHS
From the text: Among these peptides, ACEi peptides represent a promising alternative to synthetic drugs to control hypertension. For instance, canary seed peptides (CSP) have great potential as anti-hypertensive and anti-obesity agents due to their inhibition activity on ACE and pancreatic lipase, and their non-competitive inhibitory activity was due to their destabilization of the transition state and Zn(II) coordination in ACE [13]. […] Auwal et al. illustrated that branched aliphatic or dicarboxylic amino acids (Val, Ala, Ile, and Leu) at the N-terminus could strengthen ACEi ability of peptides. Then, Val residue at the N-terminus of TMAP2 could improve its ACEi ability. […] Therefore, Ser residue, especially its hydroxyl group, should play a vital effect in the ACEi capability of ...

[8] = tested on: eNOS; conditions: via Akt pathway; cited from earlier work
From the text: as §1

Substance | reversal of NE-reduced NO content ([1]; 200 μM peptide with NE (0.5 μM), p < 0.001 vs NE) | NO level ([1]; 400 μM, control 34.41 ± 1.27, p < 0.001) [μmol/gprot] | NO level vs control group ([1]; 100, 200 and 400 μM, p < 0.001) | cell toxicity [2] | ET-1 secretion with NE ([3]; 200 μM peptide with NE (0.5 μM), NE alone 140.23 ± 5.81, p < 0.01) [pg/mL] | ET-1 secretion ([3]; 400 μM, control 118.68 ± 0.53) [pg/mL] | ET-1 secretion vs control group ([3]; tested concentrations (100–400 μM), p < 0.001 or p < 0.01) | systolic blood pressure [4] | NO production of HUVEC [5] | NO secretion [5] | ET-1 production [6] | ET-1 generation [6] | IC50 [7] [µM] | mode of ACE inhibition [7] | expression of phosphorylated eNOS in HUVECs [8] | NO synthesis in HUVECs ([5]; via Akt pathway)
H-VDRYF-OH [TMAP2, Val-Asp-Arg-Tyr-Phe] | partially offset | 51.88 ± 2.16 | significantly increased | did not induce significant cell toxicity | 111.78 ± 3.06 | 92.09 ± 4.58 | decreased | – | – | – | – | – | – | – | – | –
TYLPVH [ACEi peptide from Ruditapes philippinarum] | – | – | – | – | – | – | – | lower systolic blood pressure | increasing the NO production | promote NO secretion | reduced ET-1 production | significantly lessening ET-1 generation | 1.37 | Noncompetitive | – | –
KYIPIQ [ACEi peptide found in yak milk casein] | – | – | – | – | – | – | – | – | – | – | – | – | – | – | promote NO synthesis and the expression of phosphorylated endothelial NO synthase (eNOS) in HUVECs | promote NO synthesis
GRVSNCAA [ACEi peptide from Ruditapes philippinarum] | – | – | – | – | – | – | – | lower systolic blood pressure | increasing the NO production | promote NO secretion | reduced ET-1 production | significantly lessening ET-1 generation | 57.9 | Noncompetitive | – | –
